# What was measured:
# [1] = test system: PC-3 cells; assay: Colony forming ability of PC-3 cells after oleandrin and graded γ-irradiation; type: cell-based, human
# Method: The human prostate carcinoma cell line PC-3 was obtained from the American Type Culture Collection and maintained in RPMI 1640 medium supplemented with 10% fetal calf serum, 10,000 U/ml of penicillin-streptomycin, and 2 mM L-glutamine. Cells were grown as monolayers in 75-cm^2 flasks and maintained in a humidified 5% CO2/95% air atmosphere at 37.8° C.
# […] graded doses (2, 4 or 6 Gy) of γ-rays using a ^137Cs source (3.7 Gy/min) and assayed for colony forming ability by replating them in specified numbers into 100-mm dishes containing drug-free media. After 12 days of incubation, cells were stained with 0.5% crystal violet in absolute ethanol, and colonies with more than 50 cells were counted. The average survival levels were fit by least squares regression using a linear quadratic model. Survival curves were constructed with normalized values for the cytotoxicity induced by oleandrin alone. Oleandrin by itself reduced plating efficiency from the 95% control value to 21%.
# The untreated control samples are represented by the open circles and the oleandrin treated samples are represented by the filled circles. Values shown are the means±SE for three independent experiments. The enhancement factor at the cell survival fraction of 0.1 was 1.32.
# [2] = test system: PC-3 cells; assay: Apoptosis by TUNEL assay and flow cytometry; type: cell-based, human
# Method: PC-3 cells were incubated with 0.05 μg/ml oleandrin for 24 hours, irradiated at 2 Gy, or both. The control cells were untreated. The medium containing oleandrin was removed, fresh medium was added, and 24 hours later the apoptotic index was determined.
# Apoptosis was determined by staining and flow cytometry analysis. The terminal deoxynucleotidyltransferase (“TdT”) dUTP nick end labeling (“TUNEL”) assay to identify the DNA fragmentation (APO-DIRECT kit, Pharmingen, San Diego, Calif.) was performed according to the manufacturer's instructions. Briefly, cells (2×10^6) were fixed in 1% paraformaldehyde and washed in PBS. Cells were suspended in 70% ethanol and stored at −20° C. until use. Re-suspended cells were stained in a solution containing TdT and FITC-dUTP and incubated overnight at room temperature in the dark. They were then rinsed and re-suspended in 0.5 ml propidium iodide/RNase A solution and analyzed by flow cytometry.
# [3] = test system: caspase-3; assay: Caspase-3 activation by western blotting; type: cell-based, human
# Method: To determine whether caspase-3 activation was involved in the oleandrin-induced enhancement of PC-3 cell radioresponse, cells were treated with 5 Gy or 0.05 μg/ml oleandrin or a combination of both treatments for 24 hours. Cells were assayed for caspase-3 activation 24 hours after treatment using western blotting. cells were lysed in a buffer containing 50 mM Tris-HCl (pH 8), 450 mM NaCl, 1% triton X-100, 5 mM EDTA, 1% (v/v) of protease inhibitor cocktail, and 1% (v/v) phosphatase inhibitor cocktails I and II (Sigma, St. Louis, Mo.). Protein ([…] per lane) was separated by sodium dodecyl sulfate-polyacrylamide gel electrophoresis (“SDS-PAGE”) and transferred to a polyvinylidene difluoride (“PVDF”) membrane (Bio-Rad Laboratories, Hercules, Calif.). The membrane was blocked by 5% non-fat dry milk in Tris-buffered saline and 0.1% Tween-20 (“TBS-T”) and before incubation with a designated primary antibody (Pharmingen, San Diego, Calif.). After washing the membrane with TBS-T, it was incubated in secondary antibody and the immunoreaction was visualized using an ECL western blotting kit (Amersham Corp., Arlington Heights, Ill.).
# [4] = test system: murine tumor cell lines; conditions: cited from earlier work
# [5] = test system: PC-3 cells; assay: Effect of duration of oleandrin exposure on radiosensitivity (colony survival, 3 Gy); type: cell-based, human
# Method: The magnitude of radiosensitization depended on duration of exposure of cells to oleandrin prior to radiation. PC-3 cells were incubated in the presence of 0.05 μg/ml oleandrin for 1-24 hours. After oleandrin treatment, cells were irradiated with 3 Gy radiation and plated as in Example 1. Colonies were counted after 12 days and percent surviving fractions were plotted. […] Cell survival after 3 Gy radiation only was 50% compared to 30% after 3 Gy radiation plus 0.05 μg/ml oleandrin. Values shown are means±SE for three independent experiments. The average survival levels were fit by least squares regression using a linear quadratic model.
# [6] = test system: human tumor cell lines; conditions: cited from earlier work
# [7] = test system: NF-kB; conditions: cited from earlier work
# [8] = test system: PC-3 cells; assay: Clonogenic cell survival with caspase-3 inhibitor, oleandrin and radiation; type: cell-based, human; conditions: for Survival of cells (%) following radiation of 2 Gy / Survival of cells (%) following radiation of 6 Gy / Survival of cells (%) following radiation of O Gy: oleandrin 0.05 μg/ml 24 hours, ZDEVD-FMK 100 μM added 2 hours before oleandrin; for Survival of cells (%) following radiation of 2 Gy: control 74.6 ± 3.4; for Survival of cells (%) following radiation of 6 Gy: control 7.8 ± 0.6; for Survival of cells (%) following radiation of O Gy: no radiation, percent control, mean±SE
# Method: PC-3 cells were incubated with 0.05 μg/ml oleandrin for 24 hours before being irradiated with 2 or 6 Gy. […] Clonogenic cell survival was then determined. Colonies were counted and the survival of cells (percent control) was calculated. Data are presented as mean±SE from three experiments.
# [9] = test system: PC-3 cells; assay: Hoechst 33258 staining of apoptotic cells, fluorescent microscope; type: cell-based, human; conditions: oleandrin plus radiation versus any other treated or control population
# Excerpt: In addition, the control cells and the experimental cells were stained with a fluorescent dye, Hoechst 33258, that binds to fragmented DNA. The PC-3 cells were observed under a fluorescent microscope.
# [10] = test system: human tumor cells including squamous cell carcinoma and melanoma; conditions: squamous cell carcinoma and melanoma among types; cited from earlier work
# [11] = test system: A549 human lung adenocarcinoma cells; conditions: cited from earlier work
# [12] = test system: normal human lung fibroblasts; conditions: cited from earlier work
compound,measurement,setting,value
"CO[C@H]1C[C@H](O[C@H]2CC[C@@]3(C)[C@H](CC[C@@H]4[C@@H]3CC[C@]3(C)[C@@H](C5=CC(=O)OC5)[C@@H](OC(C)=O)C[C@]43O)C2)O[C@@H](C)[C@@H]1O [Oleandrin, oleandrin]",cytotoxicity by itself,[1]; oleandrin 0.025 μg/ml,non-cytotoxic
same,influence on radiosensitization,[1]; oleandrin 0.025 μg/ml,no significant influence
same,enhancement factor at the cell survival fraction of 0.1,"[1]; oleandrin 0.05 μg/ml 24 hours, then 2, 4 or 6 Gy γ-rays",1.32
same,plating efficiency,"[1]; oleandrin 0.05 μg/ml for 24 hours, by itself (no radiation), control value 95%",21%
same,percentage of apoptotic cells,"[2]; 0.05 μg/ml oleandrin 24 hours alone, measured 24 hours later, control 2.1±0.4",63.5±6.1%
same,percentage of apoptotic cells,"[2]; 0.05 μg/ml oleandrin 24 hours plus 2 Gy, 2 Gy alone 8.2±3.4%",85.8±5.3%
same,combination effect on apoptosis versus individual treatments,[2]; oleandrin 0.05 μg/ml plus 2 Gy,more than the additive effects
same,activation of caspase-3,"[3]; 0.05 μg/ml oleandrin alone, 24 hours, assayed 24 hours after treatment",effective
same,level of caspase-3 activation,[3]; 0.05 μg/ml oleandrin combined with 5 Gy,higher
same,induction of apoptosis,[4],not in murine tumor cell lines
same,radiosensitizing effect versus duration of exposure,"[5]; 0.05 μg/ml oleandrin 1-24 hours, 3 Gy",increased as the duration of exposure to oleandrin increased up to 24 hours
same,cell survival,"[5]; 3 Gy radiation plus 0.05 μg/ml oleandrin, exposure 1 hour, 3 Gy only 50%",30%
same,induction of apoptosis,[6],induces apoptosis
same,activation of NF-kB,[7],inhibits activation
same,Survival of cells (%) following radiation of 2 Gy,[8],55.5 ± 1.9%
same,Survival of cells (%) following radiation of 6 Gy,[8],3.1 ± 0.8%
same,Survival of cells (%) following radiation of O Gy,[8],88.9 ± 2.9%
same,apoptotic cells observed (Hoechst 33258),[9],More apoptotic cells
"C[C@@H]1O[C@@H](O[C@H]2C[C@@H](O)[C@]3(CO)[C@H]4[C@H](O)C[C@]5(C)[C@@H](C6=CC(=O)OC6)CC[C@]5(O)[C@@H]4CC[C@]3(O)C2)[C@H](O)[C@H](O)[C@H]1O [Ouabain, ouabain]",radiosensitization,[10],radiosensitize
same,in vitro radiosensitivity,[11],enhance in vitro radiosensitivity
same,modification of radioresponse,[12],ineffective
ZDEVD-FMK [Z-DEVD-FMK],Survival of cells (%) following radiation of 2 Gy,[8],77.8 ± 3.2%
same,Survival of cells (%) following radiation of 6 Gy,[8],8.6 ± 2.1%
same,effect on oleandrin-induced enhancement of radiation response,[8]; ZDEVD-FMK 100 μM with oleandrin 0.05 μg/ml,abolished
same,Survival of cells (%) following radiation of O Gy,[8],97.4 ± 1.7%
